Where “and” joins values, the source holds several entries; their conditions need not be identical. Equal values may be shown once. Inconclusive results and toxic doses are left out.
Tested on: P388 leukemia ip, CD2F1 mice, survival T/C
Assay: NCI In Vivo Anticancer Drug Screen. Data for tumor model P388 Leukemia (intraperitoneal) in CD2F1 (CDF1) mice
Conditions: endpoint: median survival time, higher = longer survival
In short: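 Mice carrying the transplanted tumor received test compound or vehicle. Survival was recorded in each group, and the value is the treated-group measurement divided by that of the vehicle-treated control group.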

[1] = dose: 50.0 mg/kg/injection, schedule: Q01DX005 (ip), vehicle: saline with Tween-80
[2] = dose: 100.0 mg/kg/injection, schedule: Q01DX005 (ip), vehicle: saline with Tween-80
[3] = dose: 50.0 mg/kg/injection, schedule: Q01DX005 (ip), vehicle: Klucel (hydroxypropylcellulose) (HPC)
[4] = dose: 100.0 mg/kg/injection, schedule: Q01DX005 (ip), vehicle: Klucel (hydroxypropylcellulose) (HPC)
[5] = dose: 200.0 mg/kg/injection, schedule: Q01DX005 (ip), vehicle: Klucel (hydroxypropylcellulose) (HPC)
[6] = dose: 60.0 mg/kg/injection, schedule: Q01DX005 (ip), vehicle: saline with Tween-80
[7] = dose: 25.0 mg/kg/injection, schedule: Q01DX009 (ip), vehicle: Klucel (hydroxypropylcellulose) (HPC)
[8] = dose: 50.0 mg/kg/injection, schedule: Q01DX009 (ip), vehicle: saline
[9] = dose: 100.0 mg/kg/injection, schedule: Q01DX009 (ip), vehicle: saline
[10] = dose: 200.0 mg/kg/injection, schedule: Q01DX009 (ip), vehicle: saline
[11] = dose: 12.5 mg/kg/injection, schedule: Q01DX009 (ip), vehicle: Klucel (hydroxypropylcellulose) (HPC)
[12] = dose: 50.0 mg/kg/injection, schedule: Q01DX009 (ip), vehicle: Klucel (hydroxypropylcellulose) (HPC)

## CCCCN(CCCC)CC(C)(C)C(O)c1ccc(OC)c2ccccc12 (stereo not given)
dose: 12.5 mg/kg/injection, schedule: Q01DX005 (ip), vehicle: saline with Tween-80
  T/C: 106 % of control
dose: 25.0 mg/kg/injection, schedule: Q01DX005 (ip), vehicle: saline with Tween-80
  T/C: 106 % of control
[1]
  T/C: 101 % of control and 103 % of control

## CNC(C#N)C(C)F (stereo not given)
dose: 15.0 mg/kg/injection, schedule: Q01DX005 (ip), vehicle: saline
  T/C: 98 % of control
dose: 30.0 mg/kg/injection, schedule: Q01DX005 (ip), vehicle: saline
  T/C: 99 % of control
dose: 60.0 mg/kg/injection, schedule: Q01DX005 (ip), vehicle: saline
  T/C: 99 % of control and 98 % of control

## O=C1c2cccc3cc([N+](=O)[O-])cc(c23)C(=O)N1CCCNCCNCCCN1C(=O)c2cccc3cc([N+](=O)[O-])cc(c23)C1=O
[1]
  T/C: 92 % of control
[2]
  T/C: 154 % of control

## CSc1ccc(NC(=S)SCc2ccc3c(c2)OCO3)cc1Cl
dose: 50.0 mg/kg/injection, schedule: Q01DX009 (ip), vehicle: suspension in saline
  T/C: 105 % of control
dose: 100.0 mg/kg/injection, schedule: Q01DX009 (ip), vehicle: suspension in saline
  T/C: 101 % of control
dose: 200.0 mg/kg/injection, schedule: Q01DX009 (ip), vehicle: suspension in saline
  T/C: 98 % of control

## CC(C)(C)N=C(Cc1ccccc1)N1CCOCC1
dose: 50.0 mg/kg/injection, schedule: Q01DX009 (ip), vehicle: saline with Tween-80
  T/C: 119 % of control
dose: 100.0 mg/kg/injection, schedule: Q01DX009 (ip), vehicle: saline with Tween-80
  T/C: 96 % of control
dose: 200.0 mg/kg/injection, schedule: Q01DX009 (ip), vehicle: saline with Tween-80
  T/C: 90 % of control

## CCN(CC)C1=C(C)C(=O)[C@]2([Si](C)(C)C)[C@](OC)(c3ccc(C(F)(F)F)cc3)[C@]12[Si](C)(C)C
dose: 100.0 mg/kg/injection, schedule: Q01DX001 (ip), vehicle: saline with Tween-80
  T/C: 101 % of control
dose: 200.0 mg/kg/injection, schedule: Q01DX001 (ip), vehicle: saline with Tween-80
  T/C: 100 % of control
dose: 400.0 mg/kg/injection, schedule: Q01DX001 (ip), vehicle: saline with Tween-80
  T/C: 97 % of control

## O=c1cc(C(F)(F)F)c2cc3c4c(c2o1)CCCN4CCC3
[3]
  T/C: 106 % of control
[4]
  T/C: 100 % of control
[5]
  T/C: 99 % of control

## CC1=NN(C(C)(C)C)[Si]2(C(C)(C)C)C1[Si]1(C(C)(C)C)C2C(C)=NN1C(C)(C)C (stereo not given)
dose: 25.0 mg/kg/injection, schedule: Q01DX005 (ip), vehicle: Klucel (hydroxypropylcellulose) (HPC)
  T/C: 92 % of control
[3]
  T/C: 86 % of control
[4]
  T/C: 90 % of control
[5]
  T/C: 90 % of control

## CSC1=NC=C(C#N)C2=NC(c3ccc(Cl)cc3)NN12 (stereo not given)
[6]
  T/C: 90 % of control
dose: 120.0 mg/kg/injection, schedule: Q01DX005 (ip), vehicle: saline with Tween-80
  T/C: 93 % of control
dose: 240.0 mg/kg/injection, schedule: Q01DX005 (ip), vehicle: saline with Tween-80
  T/C: 94 % of control

## CCn1cnc2c(=S)nc(N)[nH]c21
[7]
  T/C: 105 % of control

## CCOC(=O)c1c(C#N)c2cnn(-c3ccccc3)c2n2cccc12
dose: 15.0 mg/kg/injection, schedule: Q01DX005 (ip), vehicle: saline with Tween-80
  T/C: 98 % of control
dose: 30.0 mg/kg/injection, schedule: Q01DX005 (ip), vehicle: saline with Tween-80
  T/C: 96 % of control
[6]
  T/C: 86 % of control and 91 % of control

## N#Cc1cn(C2OC(CO)C(O)C2O)c2ncnc(N)c12 (stereo not given)
dose: 0.05 mg/kg/injection, schedule: Q01DX009 (ip), vehicle: other
  T/C: 124 % of control
dose: 0.1 mg/kg/injection, schedule: Q01DX009 (ip), vehicle: other
  T/C: 155 % of control
dose: 0.13 mg/kg/injection, schedule: Q04DX003 (ip), vehicle: other
  T/C: 154 % of control
dose: 0.15 mg/kg/injection, schedule: Q04DX003 (ip), vehicle: other
  T/C: 163 % of control
dose: 0.2 mg/kg/injection, schedule: Q01DX009 (ip), vehicle: other
  T/C: 120 % of control
dose: 0.2 mg/kg/injection, schedule: Q04DX003 (ip), vehicle: other
  T/C: 150 % of control
dose: 0.4 mg/kg/injection, schedule: Q01DX009 (ip), vehicle: other
  T/C: 95 % of control
dose: 1.0 mg/kg/injection, schedule: Q04DX003 (ip), vehicle: saline with Tween-80
  T/C: 165 % of control
dose: 2.0 mg/kg/injection, schedule: Q04DX003 (ip), vehicle: saline with Tween-80
  T/C: 150 % of control
dose: 4.0 mg/kg/injection, schedule: Q04DX003 (ip), vehicle: saline with Tween-80
  T/C: 95 % of control
dose: 29.6 micrograms/kg/injection, schedule: Q04DX003 (ip), vehicle: other
  T/C: 110 % of control
dose: 44.0 micrograms/kg/injection, schedule: Q04DX003 (ip), vehicle: other
  T/C: 120 % of control
dose: 66.0 micrograms/kg/injection, schedule: Q04DX003 (ip), vehicle: other
  T/C: 153 % of control

## CCCCC(CC)COC(OCC(CC)CCCC)C(OCC(CC)CCCC)OCC(CC)CCCC (stereo not given)
dose: 100.0 mg/kg/injection, schedule: Q04DX003 (ip), vehicle: saline with Tween-80
  T/C: 100 % of control
dose: 200.0 mg/kg/injection, schedule: Q04DX003 (ip), vehicle: saline with Tween-80
  T/C: 100 % of control
dose: 400.0 mg/kg/injection, schedule: Q04DX003 (ip), vehicle: saline with Tween-80
  T/C: 100 % of control

## CN1CCN(CCSSCCN2CCN(C)CC2)CC1
[8]
  T/C: 109 % of control
[9]
  T/C: 104 % of control
[10]
  T/C: 109 % of control

## NC(=S)n1nc(-c2ccccc2)c(N=Nc2ccccc2C(F)(F)F)c1-c1ccccc1
[1]
  T/C: 102 % of control
[2]
  T/C: 93 % of control
dose: 200.0 mg/kg/injection, schedule: Q01DX005 (ip), vehicle: saline with Tween-80
  T/C: 88 % of control

## Nc1ccc(Nc2ccncc2)cc1
dose: 6.25 mg/kg/injection, schedule: Q01DX009 (ip), vehicle: Klucel (hydroxypropylcellulose) (HPC)
  T/C: 100 % of control
[11]
  T/C: 95 % of control
[7]
  T/C: 100 % of control

## Clc1ccc(N=Cc2cccs2)cc1
dose: 3.13 mg/kg/injection, schedule: Q01DX009 (ip), vehicle: saline with Tween-80
  T/C: 100 % of control
dose: 6.25 mg/kg/injection, schedule: Q01DX009 (ip), vehicle: saline with Tween-80
  T/C: 88 % of control
dose: 12.5 mg/kg/injection, schedule: Q01DX009 (ip), vehicle: saline with Tween-80
  T/C: 90 % of control
dose: 25.0 mg/kg/injection, schedule: Q01DX009 (ip), vehicle: saline with Tween-80
  T/C: 101 % of control
[12]
  T/C: 110 % of control
dose: 100.0 mg/kg/injection, schedule: Q01DX009 (ip), vehicle: Klucel (hydroxypropylcellulose) (HPC)
  T/C: 100 % of control
dose: 200.0 mg/kg/injection, schedule: Q01DX009 (ip), vehicle: Klucel (hydroxypropylcellulose) (HPC)
  T/C: 100 % of control

## O=S1(=O)C(c2cccc(C(F)(F)F)c2)=C(O)c2cc3ccccc3nc21
dose: 6.25 mg/kg/injection, schedule: Q01DX009 (ip), vehicle: saline + Tween-80 + alcohol
  T/C: 105 % of control
dose: 12.5 mg/kg/injection, schedule: Q01DX009 (ip), vehicle: saline + Tween-80 + alcohol
  T/C: 105 % of control
dose: 25.0 mg/kg/injection, schedule: Q01DX009 (ip), vehicle: saline + Tween-80 + alcohol
  T/C: 100 % of control and 87 % of control
dose: 50.0 mg/kg/injection, schedule: Q01DX009 (ip), vehicle: saline + Tween-80 + alcohol
  T/C: 99 % of control
dose: 100.0 mg/kg/injection, schedule: Q01DX009 (ip), vehicle: saline + Tween-80 + alcohol
  T/C: 99 % of control

## CCC1CN2CCc3cc(OC)c(OC)cc3C2CC1CCCl (stereo not given)
[11]
  T/C: 94 % of control
[7]
  T/C: 103 % of control
[12]
  T/C: 103 % of control and 106 % of control

## O=C1C=CC(=O)C1=Cc1ccc([N+](=O)[O-])cc1
dose: 2.5 mg/kg/injection, schedule: Q04DX002 (ip), vehicle: saline with Tween-80
  T/C: 100 % of control
dose: 5.0 mg/kg/injection, schedule: Q04DX002 (ip), vehicle: saline with Tween-80
  T/C: 104 % of control
dose: 10.0 mg/kg/injection, schedule: Q04DX002 (ip), vehicle: saline with Tween-80
  T/C: 101 % of control
dose: 25.0 mg/kg/injection, schedule: Q04DX002 (ip), vehicle: saline with Tween-80
  T/C: 96 % of control
dose: 50.0 mg/kg/injection, schedule: Q04DX002 (ip), vehicle: saline with Tween-80
  T/C: 98 % of control

## CC(=O)C[n+]1ccccc1Sc1ccccc1C
[1]
  T/C: 103 % of control

## c1ccc2c(C3CO3)c3ccccc3c(C3CO3)c2c1 (stereo not given)
[8]
  T/C: 99 % of control
[9]
  T/C: 116 % of control
[10]
  T/C: 116 % of control
